In patent US12186290B2, “Methods for the treatment of glioblastoma multiforme” (priority 2017, dated 2025):

Assay: solubility in water
Format: physicochemical

NC(=O)C(CCC(=O)[O-])NC(=O)Cc1ccccc1.[Na+] (stereo not shown) [Iso-PG, phenylacetylisoglutaminate sodium]
solubility in water: soluble in water
